Tests used:
[1] = target: T1, Activin receptor type-1B (Homo sapiens) (UniProt P36896); assay: Inhibition of ACVR1B (unknown origin) assessed as residual activity at 1000 nM by KINOMEscan analysis relative to control
T1 sequence (whole entry): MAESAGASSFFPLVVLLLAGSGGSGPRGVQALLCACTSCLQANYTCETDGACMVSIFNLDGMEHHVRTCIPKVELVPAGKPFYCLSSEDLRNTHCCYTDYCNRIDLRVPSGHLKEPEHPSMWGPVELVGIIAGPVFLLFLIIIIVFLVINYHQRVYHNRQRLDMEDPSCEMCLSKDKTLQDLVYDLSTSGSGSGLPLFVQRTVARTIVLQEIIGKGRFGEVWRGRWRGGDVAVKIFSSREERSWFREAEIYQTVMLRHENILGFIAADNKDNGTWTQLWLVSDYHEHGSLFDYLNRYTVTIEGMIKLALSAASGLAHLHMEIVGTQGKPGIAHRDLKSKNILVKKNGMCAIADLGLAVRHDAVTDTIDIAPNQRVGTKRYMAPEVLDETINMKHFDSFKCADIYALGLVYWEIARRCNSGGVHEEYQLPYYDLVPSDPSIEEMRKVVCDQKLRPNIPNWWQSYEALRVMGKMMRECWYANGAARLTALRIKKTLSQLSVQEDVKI

[2] = target: T2, Dual specificity tyrosine-phosphorylation-regulated kinase 2 (Homo sapiens) (UniProt Q92630); assay: Inhibition of DYRK2 (unknown origin) assessed as residual activity at 1000 nM by KINOMEscan analysis relative to control
T2 sequence (whole entry): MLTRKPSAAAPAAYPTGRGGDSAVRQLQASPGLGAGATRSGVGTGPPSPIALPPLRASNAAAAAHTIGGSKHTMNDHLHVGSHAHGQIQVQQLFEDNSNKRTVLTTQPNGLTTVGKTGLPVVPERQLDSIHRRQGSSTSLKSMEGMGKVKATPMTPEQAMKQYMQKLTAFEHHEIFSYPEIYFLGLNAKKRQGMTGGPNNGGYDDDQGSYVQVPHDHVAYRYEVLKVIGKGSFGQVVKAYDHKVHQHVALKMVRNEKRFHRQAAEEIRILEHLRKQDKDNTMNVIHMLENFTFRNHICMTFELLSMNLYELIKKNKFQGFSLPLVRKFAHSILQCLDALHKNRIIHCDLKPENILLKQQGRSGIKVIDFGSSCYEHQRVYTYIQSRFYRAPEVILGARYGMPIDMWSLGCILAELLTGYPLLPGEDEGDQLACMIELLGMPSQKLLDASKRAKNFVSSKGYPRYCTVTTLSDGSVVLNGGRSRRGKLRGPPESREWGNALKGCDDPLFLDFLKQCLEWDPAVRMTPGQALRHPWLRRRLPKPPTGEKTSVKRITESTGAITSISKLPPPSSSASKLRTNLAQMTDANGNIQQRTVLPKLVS

[3] = target: Mitogen-activated protein kinase kinase kinase kinase 4 (Homo sapiens) (UniProt O95819); assay: Inhibition of MAP4K4 (unknown origin) assessed as residual activity at 1000 nM by KINOMEscan analysis relative to control
[4] = target: T3, Serine/threonine-protein kinase Nek5 (Homo sapiens) (UniProt Q6P3R8); assay: Inhibition of NEK5 (unknown origin) assessed as residual activity at 1000 nM by KINOMEscan analysis relative to control
T3 sequence (whole entry): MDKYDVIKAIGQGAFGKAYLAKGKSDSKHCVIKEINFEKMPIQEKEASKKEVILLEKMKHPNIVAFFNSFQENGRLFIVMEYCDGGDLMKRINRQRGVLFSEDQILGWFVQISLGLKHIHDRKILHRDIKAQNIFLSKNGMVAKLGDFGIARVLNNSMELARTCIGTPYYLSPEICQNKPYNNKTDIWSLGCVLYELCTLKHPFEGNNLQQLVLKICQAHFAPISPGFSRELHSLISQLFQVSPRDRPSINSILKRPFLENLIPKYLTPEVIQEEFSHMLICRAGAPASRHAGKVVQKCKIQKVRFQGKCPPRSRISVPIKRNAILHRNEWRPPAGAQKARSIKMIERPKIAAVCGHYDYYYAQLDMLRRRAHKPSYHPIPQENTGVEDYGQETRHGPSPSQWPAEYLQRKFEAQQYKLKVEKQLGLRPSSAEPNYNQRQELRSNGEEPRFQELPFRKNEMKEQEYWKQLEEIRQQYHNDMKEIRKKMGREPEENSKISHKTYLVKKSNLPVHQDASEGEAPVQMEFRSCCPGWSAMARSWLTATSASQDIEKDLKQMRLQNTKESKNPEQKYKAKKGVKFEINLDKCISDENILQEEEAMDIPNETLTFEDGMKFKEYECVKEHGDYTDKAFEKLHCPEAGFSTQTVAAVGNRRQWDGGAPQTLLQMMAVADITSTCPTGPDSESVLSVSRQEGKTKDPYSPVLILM

[5] = target: CDK4/Cyclin D3 (Homo sapiens) (UniProt P11802+P30281); assay: Inhibition of CDK4-cyclin D3 (unknown origin) assessed as residual activity at 1000 nM by KINOMEscan analysis relative to control; type: protein-complex assay
[6] = target: Ribosomal protein S6 kinase alpha-4 (Homo sapiens) (UniProt O75676); assay: Inhibition of N-terminal RPS6KA4 […] domain 1 (unknown origin) assessed as residual activity at 1000 nM by KINOMEscan analysis relative to control
Chain of Ribosomal protein S6 kinase alpha-4 (Homo sapiens) (O75676 whole entry, looked up): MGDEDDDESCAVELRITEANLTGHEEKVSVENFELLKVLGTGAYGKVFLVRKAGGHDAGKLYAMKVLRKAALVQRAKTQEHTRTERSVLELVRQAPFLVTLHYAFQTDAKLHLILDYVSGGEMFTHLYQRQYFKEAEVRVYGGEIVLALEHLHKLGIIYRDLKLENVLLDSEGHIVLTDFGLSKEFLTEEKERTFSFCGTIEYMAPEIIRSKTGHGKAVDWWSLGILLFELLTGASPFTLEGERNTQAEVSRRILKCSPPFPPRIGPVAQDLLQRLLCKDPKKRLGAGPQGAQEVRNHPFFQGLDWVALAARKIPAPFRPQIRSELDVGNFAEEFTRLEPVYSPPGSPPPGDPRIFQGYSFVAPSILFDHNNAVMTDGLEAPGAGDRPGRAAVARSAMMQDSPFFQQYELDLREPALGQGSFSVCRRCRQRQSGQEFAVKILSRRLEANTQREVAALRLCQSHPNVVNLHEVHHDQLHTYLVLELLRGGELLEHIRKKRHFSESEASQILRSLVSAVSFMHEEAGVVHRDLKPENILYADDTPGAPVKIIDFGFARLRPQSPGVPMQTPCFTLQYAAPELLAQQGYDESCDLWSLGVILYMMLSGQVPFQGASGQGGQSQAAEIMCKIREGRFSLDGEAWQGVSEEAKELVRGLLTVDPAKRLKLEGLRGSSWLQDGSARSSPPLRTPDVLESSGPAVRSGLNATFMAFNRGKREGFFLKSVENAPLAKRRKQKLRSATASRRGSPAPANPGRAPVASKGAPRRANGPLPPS

Chain of Mitogen-activated protein kinase kinase kinase kinase 4 (Homo sapiens) (O95819 2-1239 limits assumed): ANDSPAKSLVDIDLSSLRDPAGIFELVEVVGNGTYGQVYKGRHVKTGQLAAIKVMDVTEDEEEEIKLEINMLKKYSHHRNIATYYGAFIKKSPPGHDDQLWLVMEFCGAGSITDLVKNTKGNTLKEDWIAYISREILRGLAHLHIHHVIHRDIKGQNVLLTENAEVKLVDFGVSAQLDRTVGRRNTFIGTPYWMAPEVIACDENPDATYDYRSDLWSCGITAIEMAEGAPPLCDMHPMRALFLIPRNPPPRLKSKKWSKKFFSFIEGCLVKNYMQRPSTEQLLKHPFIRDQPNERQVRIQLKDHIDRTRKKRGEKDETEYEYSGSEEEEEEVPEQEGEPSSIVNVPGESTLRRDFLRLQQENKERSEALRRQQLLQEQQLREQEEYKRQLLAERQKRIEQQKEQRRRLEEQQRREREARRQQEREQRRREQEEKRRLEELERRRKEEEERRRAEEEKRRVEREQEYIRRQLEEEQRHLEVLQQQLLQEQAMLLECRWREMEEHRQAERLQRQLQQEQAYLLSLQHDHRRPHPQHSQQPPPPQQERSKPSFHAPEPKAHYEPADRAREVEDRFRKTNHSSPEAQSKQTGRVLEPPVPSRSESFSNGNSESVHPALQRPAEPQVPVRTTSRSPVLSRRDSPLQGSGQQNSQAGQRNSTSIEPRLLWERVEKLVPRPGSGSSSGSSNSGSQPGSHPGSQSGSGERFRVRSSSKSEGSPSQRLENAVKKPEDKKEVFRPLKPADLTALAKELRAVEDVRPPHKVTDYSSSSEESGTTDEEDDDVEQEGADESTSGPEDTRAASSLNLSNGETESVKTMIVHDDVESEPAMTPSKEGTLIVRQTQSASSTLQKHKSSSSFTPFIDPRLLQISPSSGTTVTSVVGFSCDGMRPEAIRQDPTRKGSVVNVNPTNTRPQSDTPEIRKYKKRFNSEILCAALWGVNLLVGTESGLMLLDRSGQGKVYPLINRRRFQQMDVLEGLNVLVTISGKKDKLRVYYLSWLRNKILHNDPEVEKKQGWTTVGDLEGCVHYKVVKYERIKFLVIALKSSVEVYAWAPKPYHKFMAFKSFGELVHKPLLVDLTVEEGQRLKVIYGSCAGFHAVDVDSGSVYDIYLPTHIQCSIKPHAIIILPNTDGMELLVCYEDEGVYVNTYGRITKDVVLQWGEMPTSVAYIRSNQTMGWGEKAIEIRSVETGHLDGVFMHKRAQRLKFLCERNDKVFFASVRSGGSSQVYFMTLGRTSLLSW

SMILES | Activity [1] | Activity [2] | Activity [3] | Activity [4] | Activity [5] | Activity [6]
COc1cc2ncnc(N[C@H](C)c3cccc4ccccc34)c2cc1OC | 100% | 90% | 100% | 85% | 100% | 100%
COc1cc2nc(C)nc(N[C@H](C)c3cccc(-c4cn[nH]c4)c3)c2cc1OC | 100% | 99% | 98% | 90% | 100% | 0%

— ChEMBL document CHEMBL5678818, “Discovery of potent SOS1 inhibitors that block RAS activation via disruption of the RAS-SOS1 interaction” (Proc Natl Acad Sci U S A, 2019)
